Entries after “also recorded” stand apart in the source; their conditions may differ.
Experiments:
[1] = tested on: somatostatin in DG hilus; experiment: somatostatin immunohistochemistry, SOM-immunoreactive hilar neuron counts after 4-week levetiracetam; assay type: in vivo, rat; settings: 10 mg/kg/day, osmotic minipumps, four weeks; AI-LEV vs Y p=0.679, AI-LEV vs AI-VEH p<0.01
Procedure: (§1) Under isoflurane anesthesia, memory-impaired aged rats are implanted subcutaneously in the intrascapular region with osmotic mini-pumps (ALZET,
(§2) Durect Corporation, Cupertino, Calif.) with levetiracetam (10 mg/kg/day) or saline vehicle for four weeks prior to perfusion. Young rats, which served as controls, receive either saline vehicle in mini-pumps or no implantation.
(§3) At the end of the 4-week treatment period, rats are anesthetized with isoflurane and perfused transcardiacally with 0.1 M phosphate buffer saline, followed by 4% paraformaldehyde in phosphate buffer. Brains are removed and post-fixed in paraformaldehyde overnight. […]
Tissue is labeled with anti-SOM antiserum (Santa Cruz Biotechnology; cat. no. SC7819-P) using an established immunoperoxidase protocol and tissue sections are processed concurrently to minimize inter-replication variability (Haberman et al., 2009). […] The secondary antibody is detected with avidin-biotin complex (ABC Elite; Vector Laboratories Inc., Burlingame, Calif.) and the avidin-biotin complex is visualized with nickel-enhanced diaminobenzadine (Vector Laboratories Inc., Burlingame, Calif.). […]
Interneuron quantification is performed using a Zeiss Axioplan 2 microscope equipped with a motorized stage. […] Neuron counts are analyzed as the total number of hilar interneurons per hippocampal section for each rat.

[2] = tested on: reelin in Entorhinal Cortex (EC2); experiment: reelin mRNA in situ hybridization in entorhinal cortex after 4-week levetiracetam; assay type: in vivo, rat; settings: 10 mg/kg/day, osmotic minipumps, 28 days; vs AI-VEH t(13)=2.386, p=0.033
Procedure: as §1, §2
as §3, with “overnight. The brains are then moved into 4% paraformaldehyde in phosphate buffer containing 16% sucrose.” for “overnight.”
Probe templates are synthesized as described in Haberman et al. (2008). […] The final probe is resuspended in RNase-free water and the specific activity is determined by scintillation counter.
In situ hybridization is carried out as described by Haberman et al., (2008). […] Slides are dried overnight, exposed to a phosphoimager screen, and quantified by using ImageQuant (GE Healthcare). Digital images are acquired of entorhinal cortical sections from the same levels for all animals and the subregion of interest is outlined and quantified. […]

[3] = cited from earlier work

In the case of `CC[C@@H](C(N)=O)N1CCCC1=O` [levetiracetam, (2S)-2-(2-oxopyrrolidin-1-yl) butanamide], the “levels of somatostatin in DG hilus (SOM-immunoreactive hilar neurons)” value [1] is given as “restores the levels of somatostatin; also recorded: restores sematostatin in DG hilus”, the “levels of reelin (mRNA expression) in Entorhinal Cortex (EC2)” value [2] is given as “restores the levels of reelin; also recorded: significantly increases the expression of reelin; also recorded: restores reelin in Entorhinal Cortex (EC2)” and the “plasma half-life expected in elderly” value ([3]; elderly, decreased renal function) is given as 9 to 10 h. For the same compound, the “time of peak plasma concentrations” value ([3]; following oral administration) was “about 1 hour”, the plasma half-life ([3]; humans) was “approximately 7±1 hour” and the “time to steady state” value ([3]; multiple twice-daily dosing) was 2 days. The “absorption after oral administration” value ([3]; oral) was “rapidly and almost completely absorbed” and the “effect of food on bioavailability” value ([3]; oral) was “not affected by food”.

— patent US10154988B2, “Methods and compositions for treating schizophrenia” (The Johns Hopkins University, priority 2012, dated 2018)
